Legend:
PIK3CD (Human) = PIK3CD (Human) (UniProt O00329); test: Assessment of PIK3CD Kinase Activity
PIK3CA (human) = PIK3CA (human) (UniProt P42336); test: Assessment of PIK3CA Kinase Activity
PIK3CB (Human) = PIK3CB (Human) (UniProt P42338); test: Assessment of PIK3CB Kinase Activity
PIK3CG (human) = PIK3CG (human) (UniProt P48736); test: Assessment of PIK3CG Kinase Activity
Sequence of PIK3CG (human) (P48736 whole entry, looked up): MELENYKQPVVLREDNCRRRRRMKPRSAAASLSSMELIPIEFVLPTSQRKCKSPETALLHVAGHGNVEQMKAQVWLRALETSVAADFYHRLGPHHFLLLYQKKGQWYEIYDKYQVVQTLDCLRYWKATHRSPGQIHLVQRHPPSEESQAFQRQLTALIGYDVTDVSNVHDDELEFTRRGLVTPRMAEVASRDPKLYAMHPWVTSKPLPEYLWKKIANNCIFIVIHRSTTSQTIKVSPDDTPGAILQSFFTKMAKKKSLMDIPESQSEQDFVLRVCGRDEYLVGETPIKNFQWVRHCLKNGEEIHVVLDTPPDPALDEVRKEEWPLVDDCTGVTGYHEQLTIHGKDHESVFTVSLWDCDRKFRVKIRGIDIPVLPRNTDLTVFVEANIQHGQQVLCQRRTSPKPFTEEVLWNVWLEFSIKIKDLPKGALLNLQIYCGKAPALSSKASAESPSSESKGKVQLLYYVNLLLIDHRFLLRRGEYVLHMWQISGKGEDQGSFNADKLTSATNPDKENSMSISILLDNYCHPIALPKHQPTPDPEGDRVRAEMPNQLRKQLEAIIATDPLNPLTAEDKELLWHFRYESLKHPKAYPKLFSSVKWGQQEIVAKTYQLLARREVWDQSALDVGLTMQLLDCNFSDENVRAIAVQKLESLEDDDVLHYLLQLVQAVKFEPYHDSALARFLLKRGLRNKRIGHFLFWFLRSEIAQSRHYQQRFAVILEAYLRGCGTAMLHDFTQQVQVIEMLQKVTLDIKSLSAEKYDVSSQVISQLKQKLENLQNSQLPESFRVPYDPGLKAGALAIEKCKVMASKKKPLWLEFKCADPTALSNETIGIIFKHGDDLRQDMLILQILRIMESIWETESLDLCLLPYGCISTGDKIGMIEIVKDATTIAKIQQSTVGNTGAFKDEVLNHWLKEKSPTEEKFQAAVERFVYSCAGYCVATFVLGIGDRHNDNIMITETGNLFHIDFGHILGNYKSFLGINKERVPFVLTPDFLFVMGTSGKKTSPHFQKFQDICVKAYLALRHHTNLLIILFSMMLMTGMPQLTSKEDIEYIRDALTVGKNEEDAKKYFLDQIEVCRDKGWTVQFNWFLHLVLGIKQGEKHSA

Sequence of PIK3CA (human) (P42336 whole entry, looked up): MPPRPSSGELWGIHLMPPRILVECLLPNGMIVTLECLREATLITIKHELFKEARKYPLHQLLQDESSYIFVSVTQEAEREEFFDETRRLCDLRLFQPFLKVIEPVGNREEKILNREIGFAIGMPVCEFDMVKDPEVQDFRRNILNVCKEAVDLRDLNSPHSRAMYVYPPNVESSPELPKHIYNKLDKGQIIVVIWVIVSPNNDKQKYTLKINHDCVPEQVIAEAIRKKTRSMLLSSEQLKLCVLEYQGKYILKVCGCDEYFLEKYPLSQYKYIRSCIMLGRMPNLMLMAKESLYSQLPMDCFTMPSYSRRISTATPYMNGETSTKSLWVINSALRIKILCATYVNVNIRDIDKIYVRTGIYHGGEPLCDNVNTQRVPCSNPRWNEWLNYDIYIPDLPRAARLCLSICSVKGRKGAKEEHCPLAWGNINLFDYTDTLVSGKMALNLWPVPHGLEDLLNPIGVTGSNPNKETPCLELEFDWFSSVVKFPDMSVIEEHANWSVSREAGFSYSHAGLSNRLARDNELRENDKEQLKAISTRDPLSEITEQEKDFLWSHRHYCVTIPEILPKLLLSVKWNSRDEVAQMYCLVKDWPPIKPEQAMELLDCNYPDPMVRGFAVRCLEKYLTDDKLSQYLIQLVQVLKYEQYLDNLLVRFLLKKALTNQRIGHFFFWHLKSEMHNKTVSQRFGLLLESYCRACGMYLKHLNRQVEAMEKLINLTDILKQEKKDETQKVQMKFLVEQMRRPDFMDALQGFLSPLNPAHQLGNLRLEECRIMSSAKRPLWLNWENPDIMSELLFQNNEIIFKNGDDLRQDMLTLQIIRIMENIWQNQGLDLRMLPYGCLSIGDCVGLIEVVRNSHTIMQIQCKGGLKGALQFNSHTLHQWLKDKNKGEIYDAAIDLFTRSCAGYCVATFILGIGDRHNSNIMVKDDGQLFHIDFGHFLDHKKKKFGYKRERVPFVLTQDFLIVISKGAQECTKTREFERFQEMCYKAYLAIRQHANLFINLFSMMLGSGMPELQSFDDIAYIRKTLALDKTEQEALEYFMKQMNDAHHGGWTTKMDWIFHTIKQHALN
Sequence of PIK3CD (Human) (O00329 whole entry, looked up): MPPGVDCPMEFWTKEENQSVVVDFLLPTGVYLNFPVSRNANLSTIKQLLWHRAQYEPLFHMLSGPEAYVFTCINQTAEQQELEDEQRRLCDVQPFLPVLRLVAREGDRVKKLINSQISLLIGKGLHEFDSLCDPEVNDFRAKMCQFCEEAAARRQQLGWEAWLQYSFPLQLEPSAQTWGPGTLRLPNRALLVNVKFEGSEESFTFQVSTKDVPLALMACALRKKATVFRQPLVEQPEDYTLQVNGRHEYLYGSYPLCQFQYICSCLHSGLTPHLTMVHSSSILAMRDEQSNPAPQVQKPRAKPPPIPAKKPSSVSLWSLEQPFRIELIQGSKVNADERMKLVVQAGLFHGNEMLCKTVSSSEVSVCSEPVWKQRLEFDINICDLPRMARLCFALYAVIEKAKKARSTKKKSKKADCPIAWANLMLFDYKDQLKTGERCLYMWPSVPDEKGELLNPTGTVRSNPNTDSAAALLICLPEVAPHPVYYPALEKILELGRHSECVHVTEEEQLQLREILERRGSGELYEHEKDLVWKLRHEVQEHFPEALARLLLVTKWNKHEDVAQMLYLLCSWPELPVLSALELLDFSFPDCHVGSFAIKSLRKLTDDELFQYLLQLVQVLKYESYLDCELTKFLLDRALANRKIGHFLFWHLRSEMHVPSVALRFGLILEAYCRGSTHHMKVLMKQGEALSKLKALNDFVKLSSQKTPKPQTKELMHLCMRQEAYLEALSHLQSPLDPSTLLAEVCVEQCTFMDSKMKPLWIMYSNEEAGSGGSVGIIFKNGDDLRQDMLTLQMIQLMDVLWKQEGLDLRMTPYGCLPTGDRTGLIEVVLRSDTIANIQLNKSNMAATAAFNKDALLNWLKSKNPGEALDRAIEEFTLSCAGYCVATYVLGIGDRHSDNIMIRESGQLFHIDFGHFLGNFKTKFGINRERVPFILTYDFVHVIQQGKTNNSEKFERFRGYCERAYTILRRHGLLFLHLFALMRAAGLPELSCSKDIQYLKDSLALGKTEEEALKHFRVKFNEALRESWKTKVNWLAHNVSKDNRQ
Sequence of PIK3CB (Human) (P42338 whole entry, looked up): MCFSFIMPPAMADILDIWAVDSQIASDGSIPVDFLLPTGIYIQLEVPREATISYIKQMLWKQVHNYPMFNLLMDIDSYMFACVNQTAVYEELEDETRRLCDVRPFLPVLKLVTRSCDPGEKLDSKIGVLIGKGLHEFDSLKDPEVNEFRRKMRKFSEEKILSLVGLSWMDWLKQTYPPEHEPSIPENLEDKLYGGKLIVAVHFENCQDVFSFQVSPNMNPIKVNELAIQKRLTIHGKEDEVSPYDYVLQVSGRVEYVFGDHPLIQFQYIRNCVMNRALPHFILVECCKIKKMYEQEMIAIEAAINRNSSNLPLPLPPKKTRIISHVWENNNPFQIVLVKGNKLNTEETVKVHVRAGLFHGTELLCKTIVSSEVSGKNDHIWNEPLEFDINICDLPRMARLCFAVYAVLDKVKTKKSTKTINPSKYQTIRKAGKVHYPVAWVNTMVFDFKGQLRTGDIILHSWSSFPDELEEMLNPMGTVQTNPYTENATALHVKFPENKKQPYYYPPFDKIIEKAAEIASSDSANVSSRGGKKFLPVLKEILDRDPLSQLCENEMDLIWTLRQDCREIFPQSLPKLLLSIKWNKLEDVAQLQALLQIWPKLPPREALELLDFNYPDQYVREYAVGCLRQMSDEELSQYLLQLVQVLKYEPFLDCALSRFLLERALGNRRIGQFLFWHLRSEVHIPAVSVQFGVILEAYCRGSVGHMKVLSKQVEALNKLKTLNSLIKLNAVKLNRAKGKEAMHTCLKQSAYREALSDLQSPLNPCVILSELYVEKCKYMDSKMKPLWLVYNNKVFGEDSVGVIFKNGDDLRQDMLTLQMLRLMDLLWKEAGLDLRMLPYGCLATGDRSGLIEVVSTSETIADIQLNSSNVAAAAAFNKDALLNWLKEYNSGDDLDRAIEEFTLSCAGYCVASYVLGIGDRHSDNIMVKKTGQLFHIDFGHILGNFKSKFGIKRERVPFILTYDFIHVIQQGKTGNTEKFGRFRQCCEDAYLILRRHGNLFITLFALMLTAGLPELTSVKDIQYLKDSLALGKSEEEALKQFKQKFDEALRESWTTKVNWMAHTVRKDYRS

With `C[C@H](Nc1cc(N)ncn1)c1cc2cccc(Cl)c2c(=O)n1-c1ccccc1` the IC50 (PIK3CD (Human)) was 0.1 to 1 µM, the IC50 (PIK3CA (human)) was over 10 µM and the IC50 (PIK3CB (Human)) was over 10 µM.
`Cc1cc(N[C@@H](C)c2cc3cccc(Cl)c3c(=O)n2-c2ccccc2)nc(N)n1` showed an IC50 (PIK3CD (Human)) of over 10 µM, an IC50 (PIK3CG (human)) of over 10 µM and an IC50 (PIK3CA (human)) of over 10 µM. It also gave an IC50 (PIK3CB (Human)) of over 10 µM.
For `COc1cc(-c2cccc3cc([C@H](C)Nc4nc(N)ncc4-c4ccc(O)c(F)c4)n(-c4ccccc4)c(=O)c23)ccn1`, the IC50 (PIK3CD (Human)) was under 0.1 µM, the IC50 (PIK3CG (human)) was under 0.1 µM and the IC50 (PIK3CA (human)) was over 10 µM. The IC50 (PIK3CB (Human)) was over 10 µM.
`C[C@H](Nc1cc(Cl)nc(N)n1)c1cc2cccc(Cl)c2c(=O)n1-c1ccccc1` was tested, and the IC50 (PIK3CD (Human)) was 0.1 to 1 µM, the IC50 (PIK3CG (human)) was 0.1 to 1 µM and the IC50 (PIK3CA (human)) was over 10 µM. The IC50 (PIK3CB (Human)) was over 10 µM.
`Cc1nc(N)nc(N[C@@H](C)c2cc3cccc(Cl)c3c(=O)n2-c2ccccc2)c1C#N` gave an IC50 (PIK3CD (Human)) of under 0.1 µM, an IC50 (PIK3CG (human)) of under 0.1 µM and an IC50 (PIK3CA (human)) of under 0.1 µM. The IC50 (PIK3CB (Human)) was under 0.1 µM.
`Cc1ncc(-c2cccc3nc([C@H](C)Nc4nc(N)ncc4C#N)n(-c4ccccc4)c(=O)c23)cn1` gave an IC50 (PIK3CD (Human)) of under 0.1 µM, an IC50 (PIK3CG (human)) of under 0.1 µM and an IC50 (PIK3CA (human)) of over 10 µM. For the same compound, the IC50 (PIK3CB (Human)) was over 10 µM.
Compound `COc1ncc(-c2cccc3cc([C@H](C)Nc4nc(N)ncc4C#N)n(-c4cccc(F)c4)c(=O)c23)cn1` has an IC50 (PIK3CD (Human)) of under 0.1 µM, an IC50 (PIK3CG (human)) of under 0.1 µM and an IC50 (PIK3CA (human)) of over 10 µM. The IC50 (PIK3CB (Human)) was over 10 µM.
With `C[C@H](Nc1nc(N)ncc1C#N)c1cc2cccc(-c3cnc4[nH]ccc4c3)c2c(=O)n1-c1cccc(F)c1` the IC50 (PIK3CD (Human)) was under 0.1 µM, the IC50 (PIK3CG (human)) was under 0.1 µM and the IC50 (PIK3CA (human)) was 0.1 to 1 µM. The IC50 (PIK3CB (Human)) was 0.1 to 1 µM.
For `C[C@H](Nc1nc(N)ncc1[N+](=O)[O-])c1cc2cccc(Cl)c2c(=O)n1-c1ccccc1`, the IC50 (PIK3CD (Human)) was under 0.1 µM, the IC50 (PIK3CG (human)) was under 0.1 µM and the IC50 (PIK3CA (human)) was over 10 µM. The IC50 (PIK3CB (Human)) was 0.1 to 1 µM.
In the case of `C[C@H](Nc1nc(N)ncc1C#N)c1cc2cccc(Oc3ccccc3)c2c(=O)n1-c1ccccc1`, the IC50 (PIK3CD (Human)) is reported as under 0.1 µM, the IC50 (PIK3CG (human)) is reported as under 0.1 µM and the IC50 (PIK3CA (human)) is reported as over 10 µM. It also gave an IC50 (PIK3CB (Human)) of over 10 µM.
For `C[C@H](Nc1nc(N)ncc1-c1cccnc1)c1cc2cccc(Cl)c2c(=O)n1-c1ccccc1`, the IC50 (PIK3CD (Human)) was 0.1 to 1 µM, the IC50 (PIK3CG (human)) was under 0.1 µM and the IC50 (PIK3CA (human)) was over 10 µM. The IC50 (PIK3CB (Human)) was over 10 µM.
Compound `C[C@H](Nc1nc(N)ncc1C#N)c1cc2cccc(Cl)c2c(=O)n1-c1ccc(F)cc1` has an IC50 (PIK3CD (Human)) of 0.1 to 1 µM, an IC50 (PIK3CG (human)) of 0.1 to 1 µM and an IC50 (PIK3CA (human)) of over 10 µM. The IC50 (PIK3CB (Human)) was over 10 µM.
Compound `C[C@H](Nc1nc(N)ncc1C#N)c1cc2cccc(-c3cnc4[nH]ccc4c3)c2c(=O)n1-c1ccccc1` has an IC50 (PIK3CD (Human)) of under 0.1 µM, an IC50 (PIK3CG (human)) of under 0.1 µM and an IC50 (PIK3CA (human)) of 0.1 to 1 µM. It also gave an IC50 (PIK3CB (Human)) of 0.1 to 1 µM.
In the case of `COc1cc(-c2cccc3cc([C@H](C)Nc4nc(N)ncc4C(=O)N4CCC4)n(-c4ccccc4)c(=O)c23)ccn1`, the IC50 (PIK3CG (human)) is reported as under 0.1 µM, the IC50 (PIK3CA (human)) is reported as over 10 µM and the IC50 (PIK3CB (Human)) is reported as over 10 µM.
For `Cc1ccc(-c2cccc3cc([C@H](C)Nc4nc(N)ncc4C#N)n(-c4ccccc4)c(=O)c23)cc1`, the IC50 (PIK3CD (Human)) was under 0.1 µM, the IC50 (PIK3CG (human)) was under 0.1 µM and the IC50 (PIK3CA (human)) was 0.1 to 1 µM. For the same compound, the IC50 (PIK3CB (Human)) was 0.1 to 1 µM.
`C[C@H](Nc1nc(N)ncc1C(=O)N1CC(F)(F)C1)c1cc2cccc(Cl)c2c(=O)n1-c1ccccc1` showed an IC50 (PIK3CA (human)) of over 10 µM and an IC50 (PIK3CB (Human)) of over 10 µM.
With `CSc1ncc(-c2cnc(N)nc2N[C@@H](C)c2cc3cccc(Cl)c3c(=O)n2-c2ccccc2)s1` the IC50 (PIK3CD (Human)) was under 0.1 µM, the IC50 (PIK3CG (human)) was under 0.1 µM and the IC50 (PIK3CA (human)) was 0.1 to 1 µM. The IC50 (PIK3CB (Human)) was 0.1 to 1 µM.
For `C[C@H](Nc1ncnc(Cl)c1[N+](=O)[O-])c1cc2cccc(Cl)c2c(=O)n1-c1ccccc1`, the IC50 (PIK3CD (Human)) was 0.1 to 1 µM, the IC50 (PIK3CG (human)) was over 10 µM and the IC50 (PIK3CA (human)) was over 10 µM. The IC50 (PIK3CB (Human)) was over 10 µM.
Work on `COc1ncc(-c2cccc3cc([C@H](C)Nc4nc(N)ncc4C(F)(F)F)n(-c4ccccc4)c(=O)c23)cn1` yielded an IC50 (PIK3CD (Human)) of under 0.1 µM, an IC50 (PIK3CG (human)) of 0.1 to 1 µM and an IC50 (PIK3CA (human)) of over 10 µM. For the same compound, the IC50 (PIK3CB (Human)) was over 10 µM.
With `C[C@H](Nc1nc(N)ncc1C#N)c1cc2cccc(-c3ccnnc3)c2c(=O)n1C1CC1` the IC50 (PIK3CD (Human)) was under 0.1 µM, the IC50 (PIK3CG (human)) was 0.1 to 1 µM and the IC50 (PIK3CA (human)) was over 10 µM. It also gave an IC50 (PIK3CB (Human)) of 0.1 to 1 µM.
`COc1cc(-c2cccc3cc([C@H](C)Nc4nc(N)ncc4C(=O)O)n(-c4ccccc4)c(=O)c23)ccn1` gave an IC50 (PIK3CD (Human)) of over 10 µM, an IC50 (PIK3CG (human)) of over 10 µM and an IC50 (PIK3CA (human)) of over 10 µM. It also gave an IC50 (PIK3CB (Human)) of over 10 µM.
Work on `C[C@H](Nc1nc(N)ncc1-c1csc(S(C)(=O)=O)n1)c1cc2cccc(Cl)c2c(=O)n1-c1ccccc1` yielded an IC50 (PIK3CD (Human)) of under 0.1 µM, an IC50 (PIK3CG (human)) of under 0.1 µM and an IC50 (PIK3CA (human)) of under 0.1 µM. The IC50 (PIK3CB (Human)) was under 0.1 µM.
Compound `C[C@H](Nc1nc(N)ncc1S(C)(=O)=O)c1cc2cccc(Cl)c2c(=O)n1-c1ccccc1` has an IC50 (PIK3CG (human)) of 0.1 to 1 µM, an IC50 (PIK3CA (human)) of over 10 µM and an IC50 (PIK3CB (Human)) of over 10 µM.
`COc1cc(-c2cccc3cc([C@H](C)Nc4nc(N)ncc4C(=O)NC4CC4)n(-c4ccccc4)c(=O)c23)ccn1` showed an IC50 (PIK3CD (Human)) of under 0.1 µM, an IC50 (PIK3CA (human)) of over 10 µM and an IC50 (PIK3CB (Human)) of over 10 µM.
`C[C@H](Nc1nc(N)ncc1C(=O)N1CCC1)c1cc2cccc(Cl)c2c(=O)n1-c1ccccc1` was tested, and the IC50 (PIK3CG (human)) was under 0.1 µM, the IC50 (PIK3CA (human)) was over 10 µM and the IC50 (PIK3CB (Human)) was over 10 µM.
`COc1cc(-c2cccc3cc([C@H](C)Nc4nc(N)ncc4C(=O)N(C)CCO)n(-c4ccccc4)c(=O)c23)ccn1` gave an IC50 (PIK3CA (human)) of over 10 µM and an IC50 (PIK3CB (Human)) of over 10 µM.
Compound `COc1cccc2cc([C@H](C)Nc3nc(N)ncc3C#N)n(-c3ccccc3)c(=O)c12` has an IC50 (PIK3CG (human)) of 0.1 to 1 µM, an IC50 (PIK3CA (human)) of over 10 µM and an IC50 (PIK3CB (Human)) of over 10 µM.

Source: the Kinase Knowledgebase extract (Sharma et al. 2016)
